Source: US8202885B2, “Bridged six-membered ring compounds” (Actelion Pharmaceuticals Ltd., priority 2007, dated 2012)

These compounds were tested on human Cav3.1 Cav3.2 or Cav3.3 channel (assay: In vitro assay T channel (FLIPR calcium fluorescence)). Details: HEK293 cells expressing human Cav3.1, Cav3.2 or Cav3.3; 10 mM Ca2+-induced fluo-4 fluorescence; determined up to 10 μM; read-out: T channel antagonistic activity IC50.
Format: cell-based
How it was run: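 HEK293 cells stably expressing human Cav3.1, Cav3.2 or Cav3.3 loaded with fluo-4 AM (3 μM), preincubated 3 min with antagonist, then stimulated with 10 mM Ca2+ in TEA-chloride/HEPES buffer pH 7.2. FLIPR fluorescence read every 2 s for 8 min; IC50 from peak area versus vehicle, tested up to 10 μM.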
With `COCC(C)(COC)C(=O)N(C)CCCN(C)CC[C@]1(OC(=O)C(C)C)C[C@H]2CC[C@@H]1C=C2c1ccccc1` (relative stereo) [Example 51A, rac-Isobutyric acid (1R*,2R*,4R*)-2-[2-({3-[(3-methoxy-2-methoxymethyl-2-methyl-propionyl)-methyl-amino]-propyl}-methyl-amino)-ethyl]-5-phenyl-bicyclo[2.2.2]oct-5-en-2-yl ester] the IC50 was 4.43 µM. `CN(CCCc1nc2ccccc2[nH]1)CC[C@]1(O)C[C@H]2CC[C@@H]1C=C2c1nccs1` (relative stereo) [Example 24, rac-(1R*,2R*,4R*)-2-(2-{[3-(1H-Benzoimidazol-2-yl)-propyl]-methyl-amino}-ethyl)-5-thiazol-2-yl-bicyclo[2.2.2]oct-5-en-2-ol] showed an IC50 greater than 10 µM. For `COCC(C)(COC)C(=O)N(C)CCCN(C)CC[C@@]1(OC(=O)C(C)C)C[C@H]2CC[C@@H]1C(c1ccccc1)=C2C` (relative stereo) [Example 53C, rac-Isobutyric acid (1R*,2S*,4R*)-2-[2-({3-[(3-methoxy-2-methoxymethyl-2-methyl-propionyl)-methyl-amino]-propyl}-methyl-amino)-ethyl]-5-methyl-6-phenyl-bicyclo[2.2.2]oct-5-en-2-yl ester], the IC50 was 0.906 µM. In the case of `CC(C)C(=O)O[C@@]1(CCN(C)CCCc2cnc3ccccc3c2)C[C@H]2CC[C@@H]1C=C2c1ccccc1` (relative stereo) [Example 49A, rac-Isobutyric acid (1R*,2R*,4R*)-2-{2-[methyl-(3-quinolin-3-yl-propyl)-amino]-ethyl}-5-phenyl-bicyclo[2.2.2]oct-5-en-2-yl ester], the IC50 is reported as 8.5 µM. For `COc1ccc(C)c2nc(CCCN(C)CC[C@]3(O)C[C@H]4CC[C@@H]3C=C4c3ccccc3)[nH]c12` (relative stereo) [Example 30, rac-(1R*,2R*,4R*)-2-(2-{[3-(7-Methoxy-4-methyl-1H-benzoimidazol-2-yl)-propyl]-methyl-amino}-ethyl)-5-phenyl-bicyclo[2.2.2]oct-5-en-2-ol], the IC50 was 1.78 µM. Work on `CC1=C(c2ccccc2)[C@H]2CC[C@@H]1C[C@]2(O)CCN(C)CCCc1nc2ccccc2[nH]1` (relative stereo) [Example 17B, rac-(1R*,2S*,4R*)-2-(2-{[3-(1H-Benzoimidazol-2-yl)-propyl]-methyl-amino}-ethyl)-5-methyl-6-phenyl-bicyclo[2.2.2]oct-5-en-2-ol] yielded an IC50 of 0.751 µM. With `CC(C)Oc1cccc2nc(CCCN(C)CC[C@]3(O)C[C@H]4CC[C@@H]3C=C4c3ccccc3)[nH]c12` (relative stereo) [Example 33, rac-(1R*,2R*,4R*)-2-(2-{[3-(7-Isopropoxy-1H-benzoimidazol-2-yl)-propyl]-methyl-amino}-ethyl)-5-phenyl-bicyclo[2.2.2]oct-5-en-2-ol] the IC50 was 2.99 µM. With `CO[C@@]1(c2ccccc2)C[C@H]2CC[C@@H]1C[C@]2(O)CCN(C)CCCc1nc2ccccc2[nH]1` (relative stereo) [Example 77, rac-(1R*,2S*,4R*,5S*)-2-(2-{[3-(1H-Benzoimidazol-2-yl)-propyl]-methyl-amino}-ethyl)-5-methoxy-5-phenyl-bicyclo[2.2.2]octan-2-ol] the IC50 was 9.1 µM. In the case of `COc1ccc(CCCN(C)CC[C@]2(OC(=O)C(C)C)C[C@H]3CC[C@@H]2C=C3c2ccccc2)cc1OC` (relative stereo) [Example 39A, rac-Isobutyric acid (1R*,2R*,4R*)-2-(2-{[3-(3,4-dimethoxy-phenyl)-propyl]-methyl-amino}-ethyl)-5-phenyl-bicyclo[2.2.2]oct-5-en-2-yl ester], the IC50 is reported as 7.49 µM. `CC1=C(c2ccccc2)[C@H]2CC[C@@H]1C[C@@]2(CCN(C)CCCc1nc2ccccc2[nH]1)OC(=O)C(C)C` (relative stereo) [Example 17C, rac-Isobutyric acid (1R*,2S*,4R*)-2-(2-{[3-(1H-benzoimidazol-2-yl)-propyl]-methyl-amino}-ethyl)-5-methyl-6-phenyl-bicyclo[2.2.2]oct-5-en-2-yl ester] was tested, and the IC50 was 0.55 µM. `COCC(C)(COC)C(=O)N(C)CCCN(C)CC[C@]1(OC(=O)C(C)C)C[C@H]2CC[C@@H]1C(c1ccccc1)=C2C` (relative stereo) [Example 53A, rac-Isobutyric acid (1R*,2R*,4R*)-2-[2-({3-[(3-methoxy-2-methoxymethyl-2-methyl-propionyl)-methyl-amino]-propyl}-methyl-amino)-ethyl]-5-methyl-6-phenyl-bicyclo[2.2.2]oct-5-en-2-yl ester] was tested, and the IC50 was 0.688 µM. For `CN(CCCc1cnc2occc2c1)CC[C@]1(O)C[C@H]2CC[C@@H]1C=C2c1ccccc1` (relative stereo) [Example 41, rac-(1R*,2R*,4R*)-2-{2-[(3-Furo[2,3-b]pyridin-5-yl-propyl)-methyl-amino]-ethyl}-5-phenyl-bicyclo[2.2.2]oct-5-en-2-ol], the IC50 was greater than 10 µM. `CC(C)C(=O)O[C@@]1(CCN(C)CCCc2cnc3occc3c2)C[C@H]2CC[C@@H]1C=C2c1ccccc1` (relative stereo) [Example 41A, rac-Isobutyric acid (1R*,2R*,4R*)-2-{2-[(3-furo[2,3-b]pyridin-5-yl-propyl)-methyl-amino]-ethyl}-5-phenyl-bicyclo[2.2.2]oct-5-en-2-yl ester] was tested, and the IC50 was 8.26 µM. Work on `COC(=O)c1ccc2[nH]c(CCCN(C)CC[C@]3(O)C[C@H]4CC[C@@H]3C=C4c3ccccc3)nc2c1` (relative stereo) [Example 20, rac-2-(3-{[2-((1R*,2R*,4R*)-2-Hydroxy-5-phenyl-bicyclo[2.2.2]oct-5-en-2-yl)-ethyl]-methyl-amino}-propyl)-1H-benzoimidazole-5-carboxylic acid methyl ester] yielded an IC50 greater than 10 µM. With `CCOc1ccc(CCCN(C)CC[C@]2(O)C[C@H]3CC[C@@H]2C=C3c2ccccc2)cc1OCC` (relative stereo) [Example 40, rac-(1R*,2R*,4R*)-2-(2-{[3-(3,4-Diethoxy-phenyl)-propyl]-methyl-amino}-ethyl)-5-phenyl-bicyclo[2.2.2]oct-5-en-2-ol] the IC50 was 3.33 µM. `COc1cccc2[nH]c(CCCN(C)CC[C@]3(OC(=O)C(C)(C)C)C[C@H]4CC[C@@H]3C=C4c3ccccc3)nc12` (relative stereo) [Example 26D, rac-2,2-Dimethyl propionic acid (1R*,2R*,4R*)-2-(2-{[3-(4-methoxy-1H-benzoimidazol-2-yl)-propyl]-methyl-amino}-ethyl)-5-phenyl-bicyclo[2.2.2]oct-5-en-2-yl ester] showed an IC50 of 1.05 µM. `Cc1cccc(C)c1C1=C[C@H]2CC[C@@H]1C[C@@]2(O)CCN(C)CCCc1nc2ccccc2[nH]1` (relative stereo) [Example 3, rac-(1R*,2R*,4R*)-2-(2-{[3-(1H-Benzoimidazol-2-yl)-propyl]-methyl-amino}-ethyl)-5-(2,6-dimethyl-phenyl)-bicyclo[2.2.2]oct-5-en-2-ol] showed an IC50 of 6.63 µM. `CC(C)C(=O)O[C@@]1(CCN(C)CCCNC(=O)C(C)(C)C)C[C@H]2CC[C@@H]1C=C2c1ccccc1` (relative stereo) [Example 45A, rac-Isobutyric acid (1R*,2R*,4R*)-2-(2-{[3-(2,2-dimethyl-propionylamino)-propyl]-methyl-amino}-ethyl)-5-phenyl-bicyclo[2.2.2]oct-5-en-2-yl ester] gave an IC50 of 1.7 µM.
